This passage reports Papp and PAMPA permeability class results from paper PMC12654037, “Norditerpene Natural Products from Subterranean Fungi with Anti-Parasitic Activity” (Microorganisms, 2025).

This data set can be described thus: PAMPA membrane permeability assay. The class given is in vitro ADME. The method, then: PAMPA membrane permeability assay. The membrane permeability of selected compounds was evaluated using the Corning® BioCoat^TM Pre-coated PAMPA Plate System (catalog. No. 353015, Corning, Glendale, AZ, USA). The pre-coated plate assembly, which was stored at −20 °C, was thawed for 30 min at room temperature. The permeability assay was carried out in accordance with the manufacturer’s protocol. Briefly, the 96-well filter plate, pre-coated with lipids, was used as the permeation acceptor and a matching 96-well receiver plate was used as the permeation donor. […] At the end of the incubation, the plate was separated, and the final concentrations of compounds in both donor wells and acceptor wells were analyzed using LC-MS/MS. Permeability of the compounds was calculated using Equation (1): Pe = {−ln [1 − CA(t)/Ceq]}/[A × (1/VD + 1/VA) × t](1) where A = filter area (0.3 cm^2), VD = donor well volume (0.3 mL), VA = acceptor well volume (0.2 mL), t = incubation time (seconds), CA(t) = compound concentration in acceptor well at time t, and CD(t) = compound concentration in donor well at time t. Ceq was calculated using Equation (2): Ceq = [CD(t) × VD + CA(t) × VA]/(VD + VA)(2) […]
On the technique in general: The PAMPA barrier holds no transporters, so it reflects passive diffusion.

As for `CO[C@H]1OC(=O)C=C2[C@@]13O[C@@H]3[C@H]1OC(=O)[C@@]3(C)CCC[C@@]2(C)[C@@H]13` [compound 1, oidiolactone A], where the note is “PAMPA, 25 °C, 5 h, 100 μmol/L, read-out: PAMPA Pe”, the Papp at 5 h, 100 μmol/L amounted to 11 ± 1.3 ×10⁻⁶ cm/s. For the same compound, the PAMPA permeability class result (cutoff Pe 1.5 × 10^−6 cm/s) is on record as “high passive permeability”.
